{"source": "ChEMBL document CHEMBL4507311", "about": "“Data for DCP probe A-1155463” (2021)", "key": {"[1]": {"target": "Ephrin type-A receptor 2 (Homo sapiens) (UniProt P29317)", "conditions": "Compound concentration 1000.0 nM"}, "[2]": {"target": "Serine/threonine-protein kinase Nek7 (Homo sapiens) (UniProt Q8TDX7)", "conditions": "Compound concentration 1000.0 nM"}, "[3]": {"target": "Mu-type opioid receptor (Homo sapiens) (UniProt P35372)", "conditions": "Compound concentration 10.0 uM"}, "[4]": {"target": "D(2) dopamine receptor (Homo sapiens) (UniProt P14416)", "conditions": "Compound concentration 10.0 uM"}, "[5]": {"target": "Mast/stem cell growth factor receptor Kit (Homo sapiens) (UniProt P10721)", "sequence (P10721 whole entry)": "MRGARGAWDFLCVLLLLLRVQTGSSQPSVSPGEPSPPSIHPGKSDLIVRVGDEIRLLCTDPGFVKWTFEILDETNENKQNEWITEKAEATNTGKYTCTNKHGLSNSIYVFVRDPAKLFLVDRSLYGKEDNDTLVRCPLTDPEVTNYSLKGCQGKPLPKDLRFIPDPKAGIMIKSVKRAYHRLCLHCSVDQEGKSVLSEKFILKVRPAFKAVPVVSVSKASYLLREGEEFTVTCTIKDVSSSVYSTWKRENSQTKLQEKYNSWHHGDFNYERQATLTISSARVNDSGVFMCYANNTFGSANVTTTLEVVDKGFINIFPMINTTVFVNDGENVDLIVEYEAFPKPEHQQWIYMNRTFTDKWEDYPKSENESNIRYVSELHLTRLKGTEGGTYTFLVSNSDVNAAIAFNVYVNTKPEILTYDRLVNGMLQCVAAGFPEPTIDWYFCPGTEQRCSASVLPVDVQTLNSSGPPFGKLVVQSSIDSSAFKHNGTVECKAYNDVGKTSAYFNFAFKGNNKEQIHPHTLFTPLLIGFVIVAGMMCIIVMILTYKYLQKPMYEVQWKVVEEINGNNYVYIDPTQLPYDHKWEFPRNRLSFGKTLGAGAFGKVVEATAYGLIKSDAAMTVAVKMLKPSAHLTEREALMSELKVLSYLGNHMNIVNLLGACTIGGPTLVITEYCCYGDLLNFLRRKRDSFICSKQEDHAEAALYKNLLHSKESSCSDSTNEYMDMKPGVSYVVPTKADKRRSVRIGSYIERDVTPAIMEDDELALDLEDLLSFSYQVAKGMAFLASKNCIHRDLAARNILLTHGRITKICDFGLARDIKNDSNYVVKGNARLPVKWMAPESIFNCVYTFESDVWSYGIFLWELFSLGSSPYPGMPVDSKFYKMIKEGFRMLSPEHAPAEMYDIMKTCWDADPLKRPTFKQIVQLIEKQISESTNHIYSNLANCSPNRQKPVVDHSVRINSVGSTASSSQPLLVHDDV", "conditions": "Compound concentration 1000.0 nM"}, "[6]": {"test_system": "Epidermal growth factor receptor (Homo sapiens), P00533 [UNDEFINED MUTATION]", "conditions": "Compound concentration 1000.0 nM"}, "[7]": {"target": "5-hydroxytryptamine receptor 1B (Homo sapiens) (UniProt P28222)", "conditions": "Compound concentration 10.0 uM"}, "[8]": {"target": "Cyclin-dependent kinase 7 (Homo sapiens) (UniProt P50613)", "conditions": "Compound concentration 1000.0 nM"}, "[9]": {"target": "BDNF/NT-3 growth factors receptor (Homo sapiens) (UniProt Q16620)", "conditions": "Compound concentration 1000.0 nM"}, "[10]": {"target": "Vascular endothelial growth factor receptor 2 (Homo sapiens) (UniProt P35968)", "conditions": "Compound concentration 1000.0 nM"}, "[11]": {"target": "Serine/threonine-protein kinase Nek11 (Homo sapiens) (UniProt Q8NG66)", "conditions": "Compound concentration 1000.0 nM"}, "[12]": {"target": "Dual specificity protein kinase CLK3 (Homo sapiens) (UniProt P49761)", "sequence (P49761 whole entry, looked up)": "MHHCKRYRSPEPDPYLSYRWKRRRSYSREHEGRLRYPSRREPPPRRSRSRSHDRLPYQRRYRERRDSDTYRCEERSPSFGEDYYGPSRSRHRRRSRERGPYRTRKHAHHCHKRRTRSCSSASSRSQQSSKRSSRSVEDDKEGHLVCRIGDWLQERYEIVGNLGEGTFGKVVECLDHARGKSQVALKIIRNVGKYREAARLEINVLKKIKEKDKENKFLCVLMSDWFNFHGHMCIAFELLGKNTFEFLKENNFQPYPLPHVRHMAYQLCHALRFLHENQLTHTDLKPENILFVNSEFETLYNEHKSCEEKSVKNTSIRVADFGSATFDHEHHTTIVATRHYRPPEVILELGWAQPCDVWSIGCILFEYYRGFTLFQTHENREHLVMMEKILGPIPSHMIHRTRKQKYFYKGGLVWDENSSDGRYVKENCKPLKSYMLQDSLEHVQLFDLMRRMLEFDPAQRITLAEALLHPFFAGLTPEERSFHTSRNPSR", "conditions": "Compound concentration 1000.0 nM"}, "[13]": {"target": "Homeodomain-interacting protein kinase 3 (Homo sapiens) (UniProt Q9H422)", "sequence (Q9H422 whole entry, looked up)": "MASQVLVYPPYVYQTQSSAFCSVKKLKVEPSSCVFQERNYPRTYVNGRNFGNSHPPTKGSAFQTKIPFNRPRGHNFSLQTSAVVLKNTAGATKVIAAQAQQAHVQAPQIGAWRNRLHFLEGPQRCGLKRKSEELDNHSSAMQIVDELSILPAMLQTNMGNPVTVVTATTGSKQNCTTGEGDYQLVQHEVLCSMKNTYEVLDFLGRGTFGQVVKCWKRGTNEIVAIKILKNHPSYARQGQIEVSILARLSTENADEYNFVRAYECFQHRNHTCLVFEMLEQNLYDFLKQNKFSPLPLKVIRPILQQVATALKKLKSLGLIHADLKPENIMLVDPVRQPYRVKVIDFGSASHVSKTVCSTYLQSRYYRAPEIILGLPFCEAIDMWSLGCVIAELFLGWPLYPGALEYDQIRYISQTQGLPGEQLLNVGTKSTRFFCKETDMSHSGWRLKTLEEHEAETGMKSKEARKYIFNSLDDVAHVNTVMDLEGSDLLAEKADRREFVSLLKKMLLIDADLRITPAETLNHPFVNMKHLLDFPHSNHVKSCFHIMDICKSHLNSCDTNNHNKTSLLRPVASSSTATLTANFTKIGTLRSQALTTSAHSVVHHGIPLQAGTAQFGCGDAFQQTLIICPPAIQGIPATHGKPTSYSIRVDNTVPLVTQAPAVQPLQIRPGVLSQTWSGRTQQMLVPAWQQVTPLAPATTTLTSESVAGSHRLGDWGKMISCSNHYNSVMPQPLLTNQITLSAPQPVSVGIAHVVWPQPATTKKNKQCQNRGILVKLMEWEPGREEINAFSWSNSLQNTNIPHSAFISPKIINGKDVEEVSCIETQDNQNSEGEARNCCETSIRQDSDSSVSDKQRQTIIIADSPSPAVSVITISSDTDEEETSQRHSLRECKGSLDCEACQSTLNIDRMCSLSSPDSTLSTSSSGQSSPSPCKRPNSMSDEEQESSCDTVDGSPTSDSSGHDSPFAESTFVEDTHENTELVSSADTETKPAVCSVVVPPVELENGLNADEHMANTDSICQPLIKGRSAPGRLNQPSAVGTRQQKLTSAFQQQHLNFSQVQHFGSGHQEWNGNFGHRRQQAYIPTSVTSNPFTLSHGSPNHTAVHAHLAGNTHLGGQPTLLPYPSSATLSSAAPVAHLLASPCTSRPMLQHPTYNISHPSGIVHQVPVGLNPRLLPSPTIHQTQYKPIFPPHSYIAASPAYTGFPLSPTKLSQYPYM", "conditions": "Compound concentration 1000.0 nM"}, "[14]": {"target": "Inhibitor of nuclear factor kappa-B kinase subunit alpha (Homo sapiens) (UniProt O15111)", "conditions": "Compound concentration 1000.0 nM"}, "[15]": {"target": "Microtubule-associated serine/threonine-protein kinase 1 (Homo sapiens) (UniProt Q9Y2H9)", "conditions": "Compound concentration 1000.0 nM"}, "[16]": {"target": "Fibroblast growth factor receptor 2 (Homo sapiens) (UniProt P21802)", "sequence (P21802 22-821 limits assumed)": "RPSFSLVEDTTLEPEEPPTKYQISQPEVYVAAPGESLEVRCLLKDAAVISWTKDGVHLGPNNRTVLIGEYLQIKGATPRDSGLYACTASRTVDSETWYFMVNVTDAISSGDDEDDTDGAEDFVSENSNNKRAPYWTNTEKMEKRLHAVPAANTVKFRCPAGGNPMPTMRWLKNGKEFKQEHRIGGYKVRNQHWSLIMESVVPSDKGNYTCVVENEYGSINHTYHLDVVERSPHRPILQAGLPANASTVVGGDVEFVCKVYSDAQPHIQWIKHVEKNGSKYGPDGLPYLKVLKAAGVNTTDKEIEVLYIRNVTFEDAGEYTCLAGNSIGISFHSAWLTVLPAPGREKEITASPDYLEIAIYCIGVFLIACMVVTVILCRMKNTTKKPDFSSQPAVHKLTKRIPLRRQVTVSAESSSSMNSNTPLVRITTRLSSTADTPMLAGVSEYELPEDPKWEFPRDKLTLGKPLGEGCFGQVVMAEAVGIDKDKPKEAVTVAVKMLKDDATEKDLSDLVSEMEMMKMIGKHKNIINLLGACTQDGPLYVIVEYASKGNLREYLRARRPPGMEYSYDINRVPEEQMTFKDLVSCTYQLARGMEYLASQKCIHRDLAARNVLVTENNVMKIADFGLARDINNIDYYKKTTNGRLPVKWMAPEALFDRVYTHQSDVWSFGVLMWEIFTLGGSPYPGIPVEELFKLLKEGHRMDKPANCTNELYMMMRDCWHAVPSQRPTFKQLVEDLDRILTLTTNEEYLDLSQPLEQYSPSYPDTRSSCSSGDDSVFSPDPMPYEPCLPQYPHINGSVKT", "conditions": "Compound concentration 1000.0 nM"}, "[17]": {"target": "Serine/threonine-protein kinase/endoribonuclease IRE1 (Homo sapiens) (UniProt O75460)", "conditions": "Compound concentration 1000.0 nM"}, "[18]": {"target": "Tyrosine-protein kinase receptor TYRO3 (Homo sapiens) (UniProt Q06418)", "conditions": "Compound concentration 1000.0 nM"}, "[19]": {"target": "Mitogen-activated protein kinase kinase kinase 11 (Homo sapiens) (UniProt Q16584)", "conditions": "Compound concentration 1000.0 nM"}, "[20]": {"test_system": "Epidermal growth factor receptor (Homo sapiens), P00533 [G719C]", "conditions": "Compound concentration 1000.0 nM"}, "[21]": {"target": "Interleukin-1 receptor-associated kinase 4 (Homo sapiens) (UniProt Q9NWZ3)", "sequence (Q9NWZ3 whole entry)": "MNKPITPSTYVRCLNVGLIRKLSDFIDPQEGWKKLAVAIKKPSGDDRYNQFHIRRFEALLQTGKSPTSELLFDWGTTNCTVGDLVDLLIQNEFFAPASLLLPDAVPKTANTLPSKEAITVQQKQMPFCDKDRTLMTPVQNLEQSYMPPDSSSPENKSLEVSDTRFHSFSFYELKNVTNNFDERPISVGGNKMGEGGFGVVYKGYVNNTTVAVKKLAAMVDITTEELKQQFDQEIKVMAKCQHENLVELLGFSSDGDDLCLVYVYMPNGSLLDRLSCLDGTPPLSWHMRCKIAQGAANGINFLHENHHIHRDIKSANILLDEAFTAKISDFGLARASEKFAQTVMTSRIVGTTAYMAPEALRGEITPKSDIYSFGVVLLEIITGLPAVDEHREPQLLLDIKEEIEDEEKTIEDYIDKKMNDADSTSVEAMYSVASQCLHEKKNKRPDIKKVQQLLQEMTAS", "conditions": "Compound concentration 1000.0 nM"}, "[22]": {"target": "TGF-beta receptor type-2 (Homo sapiens) (UniProt P37173)", "conditions": "Compound concentration 1000.0 nM"}, "[23]": {"test_system": "Mast/stem cell growth factor receptor Kit (Homo sapiens), P10721 [V559D,V654A]", "sequence (P10721 whole entry V559D/V654A)": "as the sequence (P10721 whole entry) above, with V559D, V654A counted along it", "conditions": "Compound concentration 1000.0 nM"}, "[24]": {"target": "MAP kinase-interacting serine/threonine-protein kinase 1 (Homo sapiens) (UniProt Q9BUB5)", "conditions": "Compound concentration 1000.0 nM"}, "[25]": {"target": "Bone morphogenetic protein receptor type-1B (Homo sapiens) (UniProt O00238)", "conditions": "Compound concentration 1000.0 nM"}, "[26]": {"target": "Serine/threonine-protein kinase SIK3 (Homo sapiens) (UniProt Q9Y2K2)", "conditions": "Compound concentration 1000.0 nM"}, "[27]": {"target": "T1, Muscarinic acetylcholine receptor M4 (Homo sapiens) (UniProt P08173)", "T1 sequence (whole entry)": "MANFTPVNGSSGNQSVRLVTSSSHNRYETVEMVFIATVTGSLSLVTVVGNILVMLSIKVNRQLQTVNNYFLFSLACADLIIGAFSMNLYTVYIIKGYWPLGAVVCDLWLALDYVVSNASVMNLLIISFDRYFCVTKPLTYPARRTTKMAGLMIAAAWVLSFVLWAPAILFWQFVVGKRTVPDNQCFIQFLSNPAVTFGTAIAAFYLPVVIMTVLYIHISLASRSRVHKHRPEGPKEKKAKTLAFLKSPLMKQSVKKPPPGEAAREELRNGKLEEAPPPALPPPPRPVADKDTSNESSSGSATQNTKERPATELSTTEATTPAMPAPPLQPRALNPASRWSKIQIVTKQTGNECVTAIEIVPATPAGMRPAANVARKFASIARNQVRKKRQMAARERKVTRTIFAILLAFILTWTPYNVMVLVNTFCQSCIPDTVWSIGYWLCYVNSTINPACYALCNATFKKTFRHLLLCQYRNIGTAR", "conditions": "Compound concentration 10.0 uM"}, "[28]": {"target": "Calcium/calmodulin-dependent protein kinase type II subunit alpha (Homo sapiens) (UniProt Q9UQM7)", "conditions": "Compound concentration 1000.0 nM"}, "[29]": {"test_system": "Tyrosine-protein kinase ABL1 (Homo sapiens), P00519 [F317I]", "conditions": "Compound concentration 1000.0 nM"}, "[30]": {"target": "Serine/threonine-protein kinase 32B (Homo sapiens) (UniProt Q9NY57)", "sequence (Q9NY57 whole entry)": "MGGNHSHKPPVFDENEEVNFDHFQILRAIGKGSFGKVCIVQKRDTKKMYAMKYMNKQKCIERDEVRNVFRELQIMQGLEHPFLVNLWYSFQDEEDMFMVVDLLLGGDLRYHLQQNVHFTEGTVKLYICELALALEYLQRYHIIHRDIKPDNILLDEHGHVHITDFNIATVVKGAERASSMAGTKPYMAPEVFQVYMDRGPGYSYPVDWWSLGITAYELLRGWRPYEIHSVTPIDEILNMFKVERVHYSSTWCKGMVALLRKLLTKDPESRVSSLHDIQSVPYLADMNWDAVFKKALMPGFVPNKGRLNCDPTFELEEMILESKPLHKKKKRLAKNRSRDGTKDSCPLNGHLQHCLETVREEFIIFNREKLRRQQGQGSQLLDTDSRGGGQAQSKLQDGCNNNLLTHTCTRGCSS", "conditions": "Compound concentration 1000.0 nM"}, "[31]": {"target": "Serine/threonine-protein kinase PAK 4 (Homo sapiens) (UniProt O96013)", "conditions": "Compound concentration 1000.0 nM"}, "[32]": {"target": "Protein kinase C delta type (Homo sapiens) (UniProt Q05655)", "conditions": "Compound concentration 1000.0 nM"}, "[33]": {"target": "NT-3 growth factor receptor (Homo sapiens) (UniProt Q16288)", "conditions": "Compound concentration 1000.0 nM"}, "[34]": {"target": "Discoidin domain-containing receptor 2 (Homo sapiens) (UniProt Q16832)", "conditions": "Compound concentration 1000.0 nM"}, "[35]": {"test_system": "ALK tyrosine kinase receptor (Homo sapiens), Q9UM73 [L1196M]", "conditions": "Compound concentration 1000.0 nM"}, "[36]": {"test_system": "Receptor-type tyrosine-protein kinase FLT3 (Homo sapiens), P36888 [D835H]", "conditions": "Compound concentration 1000.0 nM"}, "[37]": {"target": "Tyrosine-protein kinase Fgr (Homo sapiens) (UniProt P09769)", "sequence (P09769 2-529 limits assumed)": "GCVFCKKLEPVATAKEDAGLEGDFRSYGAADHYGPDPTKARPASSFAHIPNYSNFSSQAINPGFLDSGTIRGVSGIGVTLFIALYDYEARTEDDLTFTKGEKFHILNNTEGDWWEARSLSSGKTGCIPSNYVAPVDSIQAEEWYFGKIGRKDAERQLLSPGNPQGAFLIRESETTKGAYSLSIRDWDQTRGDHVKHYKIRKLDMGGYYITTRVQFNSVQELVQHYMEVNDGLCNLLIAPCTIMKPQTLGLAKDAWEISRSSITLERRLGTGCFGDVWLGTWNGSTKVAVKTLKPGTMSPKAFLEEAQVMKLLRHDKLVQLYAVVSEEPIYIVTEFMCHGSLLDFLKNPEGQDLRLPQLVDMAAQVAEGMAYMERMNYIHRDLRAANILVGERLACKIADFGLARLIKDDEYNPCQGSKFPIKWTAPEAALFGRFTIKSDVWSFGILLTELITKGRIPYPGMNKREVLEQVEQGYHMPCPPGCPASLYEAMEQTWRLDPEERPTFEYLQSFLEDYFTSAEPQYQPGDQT", "conditions": "Compound concentration 1000.0 nM"}, "[38]": {"target": "Sigma intracellular receptor 2 (Homo sapiens, UniProt Q5BJF2)", "conditions": "Compound concentration 10.0 uM"}}, "data": [{"smiles": "CN(C)CC#Cc1ccc(OCCCc2sc(N3CCc4cccc(C(=O)Nc5nc6ccccc6s5)c4C3)nc2C(=O)O)c(F)c1", "note": "[A-1155463]", "values": [{"measurement": "residual activity", "setting": "[1]", "value": 92, "unit": "%"}, {"measurement": "residual activity", "setting": "[2]", "value": 99, "unit": "%"}, {"measurement": "inhibition", "setting": "[3]", "value": 15.4, "unit": "%"}, {"measurement": "inhibition", "setting": "[4]", "value": 31.5, "unit": "%"}, {"measurement": "residual activity", "setting": "[5]", "value": 85, "unit": "%"}, {"measurement": "residual activity", "setting": "[6]", "value": 89, "unit": "%"}, {"measurement": "inhibition", "setting": "[7]", "value": 20.2, "unit": "%"}, {"measurement": "residual activity", "setting": "[8]", "value": 100, "unit": "%"}, {"measurement": "residual activity", "setting": "[9]", "value": 100, "unit": "%"}, {"measurement": "residual activity", "setting": "[10]", "value": 100, "unit": "%"}, {"measurement": "residual activity", "setting": "[11]", "value": 100, "unit": "%"}, {"measurement": "residual activity", "setting": "[12]", "value": 86, "unit": "%"}, {"measurement": "residual activity", "setting": "[13]", "value": 87, "unit": "%"}, {"measurement": "residual activity", "setting": "[14]", "value": 81, "unit": "%"}, {"measurement": "residual activity", "setting": "[15]", "value": 89, "unit": "%"}, {"measurement": "residual activity", "setting": "[16]", "value": 98, "unit": "%"}, {"measurement": "residual activity", "setting": "[17]", "value": 84, "unit": "%"}, {"measurement": "residual activity", "setting": "[18]", "value": 94, "unit": "%"}, {"measurement": "residual activity", "setting": "[19]", "value": 100, "unit": "%"}, {"measurement": "residual activity", "setting": "[20]", "value": 91, "unit": "%"}, {"measurement": "residual activity", "setting": "[21]", "value": 100, "unit": "%"}, {"measurement": "residual activity", "setting": "[22]", "value": 83, "unit": "%"}, {"measurement": "residual activity", "setting": "[23]", "value": 78, "unit": "%"}, {"measurement": "residual activity", "setting": "[24]", "value": 78, "unit": "%"}, {"measurement": "residual activity", "setting": "[25]", "value": 84, "unit": "%"}, {"measurement": "residual activity", "setting": "[26]", "value": 77, "unit": "%"}, {"measurement": "inhibition", "setting": "[27]", "value": -3.11, "unit": "%"}, {"measurement": "residual activity", "setting": "[28]", "value": 64, "unit": "%"}, {"measurement": "residual activity", "setting": "[29]", "value": 100, "unit": "%"}, {"measurement": "residual activity", "setting": "[30]", "value": 95, "unit": "%"}, {"measurement": "residual activity", "setting": "[31]", "value": 96, "unit": "%"}, {"measurement": "residual activity", "setting": "[32]", "value": 100, "unit": "%"}, {"measurement": "residual activity", "setting": "[33]", "value": 100, "unit": "%"}, {"measurement": "residual activity", "setting": "[34]", "value": 83, "unit": "%"}, {"measurement": "residual activity", "setting": "[35]", "value": 100, "unit": "%"}, {"measurement": "residual activity", "setting": "[36]", "value": 93, "unit": "%"}, {"measurement": "residual activity", "setting": "[37]", "value": 100, "unit": "%"}, {"measurement": "inhibition", "setting": "[38]", "value": 83, "unit": "%"}]}]}
